Reference: US20180333382A1, “PHARMACEUTICAL COMPOSITIONS COMPRISING DGLA AND USE OF SAME” (DS Biopharma Limited, priority 2017, published 2018)
Values joined by “and” are separate entries in the source; they are usually repeats but may differ in a detail not shown here. Equal entries are not always repeated. Marks after values point to notes of the source that are not given here.

Tests used:
[1] = test system: spontaneous hypertensive rats; test: Arterial pressure and phenylephrine-induced hypertensive response after seven days of gavage (DGLA, aspirin, DGLA + aspirin); assay type: in vivo, rat
Method: An in vivo investigation of anti-hypertension efficacy following co-administration of DGLA and aspirin in spontaneous hypertensive rats was conducted. This experiment investigated the efficacy of DGLA when co-administered chronically with aspirin to reduce the hypertensive response induced acutely by phenylephrine in spontaneous hypertensive rats. Spontaneously hypertensive adult male rats (250-300 g), bred by Charles River Laboratories, were used for this assay. The animals were identified upon arrival as per CCPA guidelines. The animals were pair-housed by group (low dose+aspirin, high dose+aspirin or aspirin alone) for the duration of the oral gavage prior to surgery. All animal care and vivarium maintenance was recorded, with documents kept at the test facility.
The concentrations of DGLA to be tested (50 and 500 mg/kg) as well as the concentration of aspirin (10 mg/kg) were selected by the Sponsor based on information available at the time of design of this study. They were selected to cover a range of concentrations useful for the identification of the mechanism of action of the test article.
All solution preparations were documented on a Solution Contents Form, defining labelling information and all relevant information on reagents: batch number, storage conditions, contents, and preparation/expiry dates.
The test article was formulated using olive oil as the vehicle. This stock solution was then administered by oral gavage once per day for seven consecutive days. A low and a high dose (50 mg/kg and 500 mg/kg) were tested.
A 5 mg/ml stock solution of aspirin was prepared by dissolving the appropriate amount of aspirin in 100% DMSO which was then diluted in water. The concentration of DMSO was less than 1%. The appropriate volume was administered by oral gavage to each animal once per day for seven consecutive days. The stock solution was stored at room temperature and was considered stable for the duration of the gavage.
The appropriate volume was administered to each animal by an intravenous injection at the end of the experiment on the surgery day. The stock solution was stored at 4° C. and was considered stable for the duration of the experiment.
A stock solution of phenylephrine of 1 mg/ml were prepared in PBS (pH=7.4±0.05). The stock solution was stored at 4° C. The expiration date was set at 14 days after preparation.
Male spontaneous hypertensive rats weighing approximately 300 g arrived at the facility at least two days before beginning the oral gavage. Animals were assigned to one of three groups (low dose+aspirin, high dose+aspirin, and aspirin), and were pair-housed during the acclimation period. Each group (n=4) received the appropriate compound by oral gavage using a 16 G feeding needle. The stock solution was administered once per day for seven consecutive days. On the seventh day of administration, the animals underwent surgery and hypertensive monitoring.
Rats were anesthetized with a 2.5-3.0% isoflurane-O2 mixture in an induction box. When the animals were removed from the induction box, they were connected onto a nose cone to maintain anesthesia during the tracheotomy. The animals were tracheotomised with an endotracheal tube (7 cm length from connector to the tip made with a PE205 tube from BD and a 16 G needle) to facilitate spontaneous breathing, stabilize hemodynamics, and to keep the rat under anesthesia with an isoflurane-O2 mixture. Two catheters were inserted: one in the right femoral artery for systemic arterial pressure (SAP) measurement, and one in the right femoral vein for delivery of the hypertensor and positive control. ECG signals were acquired with ECG contacts placed in a Lead-1 configuration on the anaesthetized animal, and a pulse oxymeter was attached to the animal's hind paw to enable continuous monitoring of the general condition of the rat during the surgical procedure.

[2] = in vivo
Method: In Part one of the study, plasma PK analysis of Dihomo-Gamma-Linolenic Acid (DGLA) and 15-Hydroxyeicosatrienoic acid (15-HETrE), in fasted subjects alone, was performed for Cohorts one to four up to 312 hours post dose on study Days 1 to 5, 8, 14, and the follow-up visit.
Analysis of plasma concentrations of DGLA (free and total) and free 15-HETrE were performed in blood samples obtained from the subjects.
Analysis of all plasma and skin blister fluid samples was performed using validated methods. Concentrations of free and total DGLA were measured in plasma and skin blister fluid by liquid chromatography with tandem mass spectrometry (LC/MS/MS); the quantitation range was 100 to 10,000 ng/mL for free DGLA and 5000 to 500,000 ng/mL for total DGLA. Plasma concentrations of free 15-HETrE were measured by LC/MS/MS with a quantitation range of 100 to 10,000 ng/mL.

[3] = Aspirin 10 mg/kg, seven days of gavage, before phenylephrine
[4] = aspirin only (10 mg/kg), seven consecutive days of gavage
[5] = aspirin only (10 mg/kg), seven consecutive days of gavage, Rat #1-#5

CC(=O)Oc1ccccc1C(=O)O [Aspirin, aspirin]
Arterial pressure, Diastol [1, 3]: 100 mmHg | Arterial pressure, Systol [1, 3]: 190 mmHg | Mean systemic arterial pressure [1, 3]: 130 mmHg | Mean arterial pressure at baseline, Average SAP [1, 4]: 136.8 mm of Hg | Mean arterial pressure with an intravenous dose of Phenylephrine 20 μg/kg, Average SAP [1, 4]: 174.3 mm of Hg | Mean arterial pressure at baseline, individual rats [1, 5]: 86.75 mm of Hg and 107.64 mm of Hg and 160.50 mm of Hg and 141.36 mm of Hg and 187.84 mm of Hg | Mean arterial pressure with an intravenous dose of Phenylephrine 20 μg/kg, individual rats [1, 5]: 149.35 mm of Hg and 120.84 mm of Hg and 202.61 mm of Hg and 194.76 mm of Hg and 203.90 mm of Hg | Mean Arterial Pressure, individual rats ([1]; gavage Aspirin 10 mg/kg 7 days, Baseline): 86.75 mmHg and 107.64 mmHg and 160.50 mmHg and 141.36 mmHg and 187.84 mmHg | Mean Arterial Pressure, Average ([1]; gavage Aspirin 10 mg/kg 7 days, Baseline, n=5): 136.8 mmHg | Mean Arterial Pressure, individual rats ([1]; gavage Aspirin 10 mg/kg 7 days, PHE 3 μg/kg iv): 97.24 mmHg and 122.18 mmHg and 168.06 mmHg and 150.54 mmHg and 192.06 mmHg | Mean Arterial Pressure, Average ([1]; gavage Aspirin 10 mg/kg 7 days, PHE 3 μg/kg iv, n=5): 146.0* mmHg | Mean Arterial Pressure, individual rats ([1]; gavage Aspirin 10 mg/kg 7 days, PHE 10 μg/kg iv): 137.63 mmHg and 122.18 mmHg and 203.75 mmHg and 169.61 mmHg and 201.69 mmHg | Mean Arterial Pressure, individual rats ([1]; gavage Aspirin 10 mg/kg 7 days, PHE 10 μg/kg iv after Carvedilol): 93.22 mmHg and 52.61 mmHg and 185.63 mmHg and 171.45 mmHg and 187.96 mmHg | Mean Arterial Pressure, Average ([1]; gavage Aspirin 10 mg/kg 7 days, PHE 10 μg/kg iv after Carvedilol, n=5): 138.2 § mmHg | Mean Arterial Pressure, Average ([1]; gavage Aspirin 10 mg/kg 7 days, PHE 10 μg/kg iv, n=5): 167.0* mmHg | Mean Arterial Pressure, individual rats ([1]; gavage Aspirin 10 mg/kg 7 days, PHE 20 μg/kg iv): 149.35 mmHg and 120.84 mmHg and 202.61 mmHg and 194.76 mmHg and 203.90 mmHg | Mean Arterial Pressure, Average ([1]; gavage Aspirin 10 mg/kg 7 days, PHE 20 μg/kg iv, n=5): 174.3* mmHg | Mean Arterial Pressure, individual rats ([1]; gavage Aspirin 10 mg/kg 7 days, second Baseline after PHE 20 μg/kg): 98.38 mmHg and 64.32 mmHg and 164.88 mmHg and 159.32 mmHg and 177.61 mmHg | Mean Arterial Pressure, Average ([1]; gavage Aspirin 10 mg/kg 7 days, second Baseline after PHE 20 μg/kg, n=5): 132.9** mmHg

CNC[C@H](O)c1cccc(O)c1 [phenylephrine]
hypertensor effect on mean systemic arterial pressure ([1]; 3, 10, 20 μg/kg iv, rats fed with aspirin): increased mean systemic arterial pressure with increasing doses

COc1ccccc1OCCNCC(O)COc1cccc2[nH]c3ccccc3c12 (stereo not shown) [Carvedilol, carvedilol]
effect on blood pressure ([1]; 0.1 mg/kg iv, DGLA+aspirin-fed animals): significant decrease in blood pressure | effect on mean systemic arterial pressure when added after phenylephrine ([1]; 0.1 mg/kg iv, aspirin-fed rats): significant decrease | Mean Arterial Pressure, individual rats ([1]; gavage Aspirin 10 mg/kg 7 days, Carvedilol 0.1 mg/kg iv): 57.12 mmHg and 44.38 mmHg and 145.56 mmHg and 134.82 mmHg and 115.06 mmHg | Mean Arterial Pressure, individual rats ([1]; gavage DGLA 50 mg/kg + Aspirin 10 mg/kg 7 days, Carvedilol 0.1 mg/kg iv): 115.29 mmHg and 97.01 mmHg and 126.33 mmHg and 59.10 mmHg and 58.93 mmHg | Mean Arterial Pressure, Average SAP ([1]; gavage DGLA 50 mg/kg + Aspirin 10 mg/kg 7 days, Carvedilol 0.1 mg/kg iv, n=5): 91.3 † mmHg | Mean Arterial Pressure, individual rats ([1]; gavage DGLA 500 mg/kg + Aspirin 10 mg/kg 7 days, Carvedilol 0.1 mg/kg iv): 62.13 mmHg and 57.56 mmHg and 57.32 mmHg and 52.11 mmHg | Mean Arterial Pressure, Average SAP ([1]; gavage DGLA 500 mg/kg + Aspirin 10 mg/kg 7 days, Carvedilol 0.1 mg/kg iv, n=4): 57.3 † mmHg

CCCCC[C@H](O)/C=C/C=C\C/C=C\CCCCCCC(=O)O [15-HETrE, 15-Hydroxyeicosatrienoic acid]
plasma free 15-HETrE concentrations after DS107G [2]: < 100 ng/mL
